The test system of experiment [1] is Myzus persicae (Green Peach Aphid). Nature of the experiment: Myzus persicae feeding/residual contact activity, preventive (sunflower leaf discs). The settings on record: single active ingredient, 6 DAT. Format: in vivo. An excerpt:
(§1) The action to be expected E for a given active ingredient combination obeys the so-called COLBY formula and can be calculated as follows (COLBY, S. R. “Calculating synergistic and antagonistic responses of herbicide combination”. Weeds, Vol. 15, pages 20-22; 1967):
(§2) ppm=milligrams of active ingredient (=a.i.) per liter of spray mixture
(§3) X=% action by active ingredient A) using p ppm of active ingredient
(§4) Y=% action by active ingredient B) using q ppm of active ingredient.
(§5) According to COLBY, the expected (additive) action of active ingredients A)+B) using p+q ppm of active ingredient is
(§6) If the action actually observed (0) is greater than the expected action (E), then the action of the combination is super-additive, i.e. there is a synergistic effect. In mathematical terms the synergism factor SF corresponds to O/E. In the agricultural practice an SF of ≧1.2 indicates significant improvement over the purely complementary addition of activities (expected activity), while an SF of ≦0.9 in the practical application routine signals a loss of activity compared to the expected activity.
Myzus persicae (Green Peach Aphid):
Feeding/Residual Contact Activity, Preventive
Sunflower leaf discs were placed on agar in a 24-well microtiter plate and sprayed with the DMSO test solutions of Mixtures (as provided by Table 45). After drying, the leaf discs were infested with an aphid population of mixed ages. After an incubation period of 6 DAT (days after treatment), samples were checked for mortality.

Experiment [2] deals with Tetranychus urticae (Two-Spotted Spider Mite). As to the kind of experiment: Tetranychus urticae feeding/contact activity, preventive (bean leaf discs). Format: in vivo. The following applies: single active ingredient, mobile stages.
Text: as §1, §2, §3, §4, §5, §6
Tetranychus urticae (Two-Spotted Spider Mite): Feeding/Contact Activity, Preventive
Bean leaf discs on agar in 24-well microtiter plates were sprayed with the DMSO test solutions of certain Mixtures (as provided by Table 45). After drying, the leaf discs were infested with mite populations of mixed ages. 8 days later, discs were checked for mortality against mobile stages.

Here are results for one compound from patent publication US9686992B2, “Pesticidal mixtures including spiroheterocyclic pyrrolidine diones” (Syngenta Participations AG, priority 2012, dated 2017).

SMILES strings stand for the structures.

For `N#CCNC(=O)c1cnccc1C(F)(F)F` [Flonicamid], the “AVERAGE DEAD IN % AFTER 6 DAYS” value in experiment [1] (0.75 ppm AI) turned out to be 0%; in experiment [1] (1.5 ppm AI), 0%; in experiment [1] (3 ppm AI) it was 7.5%; in experiment [1] (6 ppm AI), 40%; in experiment [1] (12 ppm AI) it was 82.5%. Further, the “AVERAGE DEAD IN % AFTER 8 DAYS” value in experiment [2] (50 ppm AI) is reported as 0%; in experiment [2] (100 ppm AI), 0%; in experiment [2] (200 ppm AI) it was 0%; in experiment [2] (400 ppm AI) it was 0%; in experiment [2] (800 ppm AI), 12.5%.
